From patent US20200129473A1, “USE OF ERIBULIN AND CYCLIN DEPENDENT KINASE INHIBITORS IN THE TREATMENT OF CANCER” (EISAI R&D MANAGEMENT CO., LTD., priority 2017, published 2020)
Where two headings read alike, the source gives them in different places.

Experiments:
[1] = system: HCC1806 human breast cancer cells; experiment: Cell Titer-Glo growth inhibition, HCC1806; format: cell-based
[2] = system: MDA-MB-436 human adenocarcinoma derived cancer cells; experiment: Cell Titer-Glo growth inhibition, MDA-MB-436; format: cell-based
[3] = system: MDA-MB-231 human breast cancer cells; experiment: Cell Titer-Glo growth inhibition, MDA-MB-231; format: cell-based
[4] = system: OD-BRE-0745, an ER+, PR+, Her2− luminal B infiltrating ductal adenocarcinoma (patient-derived breast tumor); experiment: Antitumor activity in OD-BRE-0745 PDX model; format: in vivo, Swiss nude mice; details: 150 mg/kg palbociclib, contribution of eribulin masked (FIGS. 10 and 12)
Description: A statistical test (analysis of variance) was performed to test for homogeneity between groups.

[5] = system: ZR-75-1 human breast cancer cells; experiment: Cell Titer-Glo growth inhibition, ZR-75-1; format: cell-based
[6] = system: HCC70 human breast cancer cells; experiment: Cell Titer-Glo growth inhibition, HCC70; format: cell-based
[7] = system: BT-549 human breast cancer cells; experiment: Cell Titer-Glo growth inhibition, BT-549; format: cell-based
[8] = system: MDA-MB-415 human mammary gland/breast cancer cells; experiment: Cell Titer-Glo growth inhibition, MDA-MB-415; format: cell-based
[9] = system: T-47D human breast cancer cells; experiment: Cell Titer-Glo growth inhibition, T-47D; format: cell-based; details: T47D
[10] = system: Hs578t human breast cancer cells; experiment: Cell Titer-Glo growth inhibition, Hs578t; format: cell-based; details: Hs-578T
[11] = system: MDA-MB-134-VI human breast cancer cells; experiment: Cell Titer-Glo growth inhibition, MDA-MB-134VI; format: cell-based
[12] = system: MCF-7 human breast cancer cells; experiment: Cell Titer-Glo growth inhibition, MCF-7; format: cell-based
[13] = system: MDA-MB-175-VII human breast cancer cells; experiment: Cell Titer-Glo growth inhibition, MDA-MB-175VII; format: cell-based
[14] = system: panel of 12 human breast cancer cell lines; experiment: Cell Titer-Glo growth inhibition, statements for the whole panel
Description: MCF-7 human breast cancer cells were cultured in RPMI 1640 medium supplemented with 10% fetal bovine serum (FBS), 2 mM glutamine, 10 mM 4-(2-hydroxyethyl)-1-piperazineethanesulfonic acid (HEPES), 0.075% sodium bicarbonate, 100 units/mL sodium penicillin G, 100 μg/mL streptomycin sulfate and 25 μg/mL gentamicin. T-47D human breast cancer cells were cultured in RPMI 1640 medium supplemented with 10% FBS, 4.5 g/L glucose, 2 mM glutamine, 10 mM HEPES, 0.2 units/mL Insulin, 1 mM sodium pyruvate, 100 units/mL sodium penicillin G, 100 μg/mL streptomycin sulfate and 25 μg/mL gentamicin. ZR-75-1 human breast cancer cells were cultured in RPMI 1640 medium supplemented with 10% FBS, 4.5 g/L glucose, 2 mM glutamine, 10 mM HEPES, 1 mM sodium pyruvate, 100 units/mL sodium penicillin G, 100 μg/mL streptomycin sulfate and 25 μg/mL gentamicin. MDA-MB-134-VI human breast cancer cells were cultured in Leibovitz's L-15 medium supplemented with 20% FBS, 2 mM glutamine, 100 units/mL sodium penicillin G, 100 μg/mL streptomycin sulfate and 25 μg/mL gentamicin. MDA-MB-175-VII human breast cancer cells were cultured in Leibovitz's L-15 medium supplemented with 10% FBS, 2 mM glutamine, 10 mM HEPES, 100 units/mL sodium penicillin G, 100 μg/mL streptomycin sulfate and 25 μg/mL gentamicin. […]

[15] = 72 h, read-out: Mean IC50, single agent Eribulin

CC(=O)c1c(C)c2cnc(Nc3ccc(N4CCNCC4)cn3)nc2n(C2CCCC2)c1=O [Palbociclib, 6-acetyl-8-cyclopentyl-5-methyl-2-[(5-piperazin-1-ylpyridin-2-yl)amino]pyrido[2,3-d]pyrimidin-7-one]
IC50 ([1]; HCC1806, 72 h drug exposure, read-out: Mean IC50, single agent Palbociclib): > 10000 nM
IC50 ([2]; MDA-MB-436, 72 h drug exposure, read-out: Mean IC50, single agent Palbociclib): 2990 nM
IC50 ([3]; MDA-MB-231, 72 h drug exposure, read-out: Mean IC50, single agent Palbociclib): 392 nM
Tumor response at the higher amount of palbociclib [4]: overwhelmed the response
IC50 ([5]; ZR-75-1, 72 h drug exposure, read-out: Mean IC50, single agent Palbociclib): > 10000 nM
IC50 ([6]; HCC70, 72 h drug exposure, read-out: Mean IC50, single agent Palbociclib): > 10000 nM
IC50 ([7]; BT-549, 72 h drug exposure, read-out: Mean IC50, single agent Palbociclib): > 10000 nM
IC50 ([8]; MDA-MB-415, 72 h drug exposure, read-out: Mean IC50, single agent Palbociclib): 1630 nM
IC50 ([9]; T-47D, 72 h drug exposure, read-out: Mean IC50, single agent Palbociclib): > 10000 nM
IC50 ([10]; Hs578t, 72 h drug exposure, read-out: Mean IC50, single agent Palbociclib): > 10000 nM
IC50 ([11]; MDA-MB-134VI, 72 h drug exposure, read-out: Mean IC50, single agent Palbociclib): 2440 nM
IC50 ([12]; MCF7, MCF-7, 72 h drug exposure, read-out: Mean IC50, single agent Palbociclib): > 10000 nM

C=C1C[C@@H]2CC[C@@]34C[C@H]5O[C@H]6[C@@H](O3)[C@H]3O[C@H](CC[C@@H]3O[C@H]6[C@H]5O4)CC(=O)C[C@@H]3[C@@H](OC)[C@@H](C[C@H](O)CN)O[C@H]3C[C@H]3O[C@@H](CC[C@@H]1O2)C[C@@H](C)C3=C [Eribulin]
IC50 ([1]; HCC1806, 72 h, read-out: Mean IC50, single agent Eribulin): 0.142 nM
IC50 ([1]; HCC1806, read-out: Mean IC50 of eribulin dose response with constant 1 μM Palbociclib): 0.273 nM
IC50 ([2]; MDA-MB-436, 72 h, read-out: Mean IC50, single agent Eribulin): 0.86 nM
IC50 ([2]; MDA-MB-436, read-out: Mean IC50 of eribulin dose response with constant 1 μM Palbociclib): 2.02 nM
IC50 ([2]; MDA-MB-436, read-out: Mean IC50 of eribulin dose response with constant 10 μM Palbociclib): 6.25 nM
IC50 ([3]; MDA-MB-231, 72 h, read-out: Mean IC50, single agent Eribulin): 0.149 nM
IC50 ([3]; MDA-MB-231, read-out: Mean IC50 of eribulin dose response with constant 1 μM Palbociclib): 1.45 nM
IC50 ([5]; ZR-75-1, 72 h, read-out: Mean IC50, single agent Eribulin): > 1000 nM
IC50 ([13]; Homo sapiens, MDA-MB-175-VII, 72 h, 72 h drug exposure, read-out: Mean IC50, single agent Eribulin): 0.12 nM
IC50 ([13]; Homo sapiens, MDA-MB-175-VII, eribulin 3.8 pM to 1 μM, constant 10 μM palbociclib, read-out: Mean IC50 of eribulin dose response with constant 10 μM Palbociclib): 92.9 nM
IC50 ([13]; eribulin 3.8 pM to 1 μM, constant 10 μM palbociclib, listed as Eribufin, read-out: Mean IC50 of eribulin dose response with constant 10 μM Palbociclib): 92.2 nM
IC50 ([6]; HCC70, 72 h, read-out: Mean IC50, single agent Eribulin): 0.454 nM
IC50 ([6]; HCC70, read-out: Mean IC50 of eribulin dose response with constant 1 μM Palbociclib): 0.377 nM
IC50 ([6]; HCC70, read-out: Mean IC50 of eribulin dose response with constant 10 μM Palbociclib): 21.5 nM
IC50 ([7]; BT-549, 72 h, read-out: Mean IC50, single agent Eribulin): 0.289 nM
IC50 ([7]; BT-549, read-out: Mean IC50 of eribulin dose response with constant 1 μM Palbociclib): 0.374 nM
IC50 ([7]; BT-549, read-out: Mean IC50 of eribulin dose response with constant 10 μM Palbociclib): 0.849 nM
IC50 ([8]; MDA-MB-415, 72 h, read-out: Mean IC50, single agent Eribulin): 0.403 nM
IC50 [9, 15]: 0.188 nM
IC50 [10, 15]: 0.354 nM
IC50 ([10]; read-out: Mean IC50 of eribulin dose response with constant 1 μM Palbociclib): 14.6 nM
IC50 ([10]; read-out: Mean IC50 of eribulin dose response with constant 10 μM Palbociclib): 0.797 nM
IC50 ([11]; MDA-MB-134-VI, 72 h, read-out: Mean IC50, single agent Eribulin): 0.491 nM
IC50 ([11]; MDA-MB-134-VI, read-out: Mean IC50 of eribulin dose response with constant 1 μM Palbociclib): 21 nM
IC50 ([12]; MCF7, 72 h, read-out: Mean IC50, single agent Eribulin): 0.253 nM
IC50 ([12]; MCF7, read-out: Mean IC50 of eribulin dose response with constant 1 μM Palbociclib): 0.598 nM
IC50 ([14]; Homo sapiens, read-out: IC50, single agent, overall statement): < 1 nM
Potentiation of eribulin growth inhibition by palbociclib ([14]; all cell lines, constant dose of 10 μM or 1 μM of palbociclib): No potentiation effect
